Assay results published in publication PMC9105604, “Parathyroid Hormone-Related Peptide and Its Analog, Abaloparatide, Attenuate Lethal Myocardial Ischemia-Reperfusion Injury” (Journal of Clinical Medicine, 2022).

Experiments:
HL-1 cardiomyocytes [1] = experiment: MTT viability of HL-1 cardiomyocytes with or without MEK-ERK inhibitor PD98059 (Protocol 2B)
Method: (§2) The primary endpoint for Protocols 1A–C was HL-1 cell viability assessed using the MTT (3-(4,5-dimethythiazol-2-yl)-2,5-diphenyl tetrazolium bromide) assay (Sigma Aldrich, St. Louis, MO, USA). This well-established colorimetric method is based on the reduction of the soluble tetrazolium salt to purple formazan crystals by viable, metabolically active cells and quantified by measuring absorbance at 570 nm [25].
At 24 h after the onset of treatment, cells underwent either 2 h of SI + 24 h reoxygenation or a time-matched period of normoxia (n = 2 independent replicates per group). At 24 h following relief of SI, cell viability was quantified using the MTT assay as described in Protocol 1.

HL-1 cardiomyocytes [2] = experiment: MTT viability of HL-1 cardiomyocytes, simulated ischemia-reoxygenation or normoxia (Protocol 1); format: cell-based
Method: Before initiating experiments, HL-1 cells were grown to ~80% confluence in 95% room air/5% CO2 at 37 °C in Claycomb medium supplemented with fetal bovine serum (10%), L-glutamine (2 mM), norepinephrine (0.1 mM), penicillin (100 U/mL) and streptomycin (100 µg/mL) [21, 22].
At 24 h after the onset of treatment, cells were subjected to 2 h of simulated ischemia (SI) + 24 h reoxygenation. During SI, Claycomb medium containing drug/placebo was replaced with drug-free hypoxia buffer at pH 6.6 (composed of NaCl (125 nM), KCl (8 mM), KH2PO4 (1.2 mM),1.25 mM MgSO4 (1.25 mM), CaCl2 (1.2 mM), NaHCO3 (6.25 mM), HEPES (20 mM), glucose (5.5 mM), 2-deoxy-D-glucose (20 mM), Na-lactate (5 mM): all ingredients from Sigma Aldrich, St. Louis, MO, USA) and the culture plates were sealed in a hermetic chamber with GasPak EZ Gas Generating Sachets (BD Biosciences, San Jose, CA, USA). Reoxygenation was achieved by removing the plates from the sealed chamber and exchanging the hypoxia buffer with serum-free Claycomb medium [21, 22]. Additional time- and treatment-matched normoxic cultures served as controls (n = 4 independent replicates per group).
as §2

phospho-Akt = experiment: Immunoblot of phospho-Akt in HL-1 cells after simulated ischemia-reperfusion (Protocol 2A); format: cell-based; settings: 10 nM, 24 h pretreatment, 2 h SI + 10 min reoxygenation; n = 3; vehicle 0.14 ± 0.01
Method: (§1) At 10 min post-reoxygenation, cells were harvested and lysed in RIPA buffer containing 2 protease and phosphatase inhibitors. The lysates were centrifuged at 14,000× g for 15 min, and the resultant supernatant was collected and probed for the expression of ERK (total and phosphorylated: antibodies from Cell Signaling Technology Inc., Danvers, MA, USA), PI3 kinase/Akt (total and phosphorylated: Cell Signaling Technology Inc., Danvers, MA, USA) and GAPDH (Sigma Aldrich Inc., St. Louis, MO, USA) using standard methods. Immunoreactive bands were identified by incubation with horseradish peroxidase (HRP)-conjugated secondary antibody, visualized using x-ray film, and quantified using the NIH ImageJ software.

phospho-ERK = experiment: Immunoblot of phospho-ERK in HL-1 cells after simulated ischemia-reperfusion (Protocol 2A); format: cell-based; settings: 10 nM, 24 h pretreatment, 2 h SI + 10 min reoxygenation; n = 3; vehicle 0.33 ± 0.09
Method: as §1

[3] = in vivo, cited from earlier work

Row | Molecule | HL-1 cell viability under normoxic conditions, alone or in combination (Protocol 2B) (HL-1 cardiomyocytes [1]; peptides 10 nM, PD98059 5 µM, 24 h, normoxia, n = 2, no statistics) | Concentration dependence of % viability / magnitude of protection after SI-reoxygenation (HL-1 cardiomyocytes [2]; 24 h pretreatment, 2 h SI + 24 h reoxygenation, Protocols 1A, 1B, confirmed in 1C) | HL-1 cell viability after SI-reoxygenation (HL-1 cardiomyocytes [2]; 24 h pretreatment, then 2 h simulated ischemia + 24 h reoxygenation, PTHrP(1-36) 10, 100 nM (n = 4), abaloparatide 0.1-100 nM (n = 5), versus vehicle) | HL-1 cell viability under normoxic conditions (HL-1 cardiomyocytes [2]; time- and treatment-matched normoxic cultures) | phospho-Akt expression (normalized to GAPDH) (phospho-Akt) | phospho-ERK expression (normalized to total ERK) (phospho-ERK) | Hemodynamic effects in post-menopausal women with osteoporosis ([3]; sc) | Incidence of adverse cardiac events in treated subjects [3] | SI-reoxygenation-induced cell death (Protocol 2B) (HL-1 cardiomyocytes [1]; 10 nM, 24 h pretreatment, 2 h SI + 24 h reoxygenation, n = 2, versus vehicle) | Protective effect on HL-1 viability with co-administration of PD98059 (HL-1 cardiomyocytes [1]; peptide 10 nM + PD98059 5 µM, 24 h, then 2 h SI + 24 h reoxygenation, n = 2)
1 | COc1cccc(-c2cc(=O)c3ccccc3o2)c1N [PD98059] | neither PTHrP(1-36), abaloparatide, or PD98059, given alone or in combination, had an effect |  |  |  |  |  |  |  |  | 
2 | abaloparatide |  | modestly but significantly greater in cells incubated with 10 nM | significantly better maintained | no effect | better preservation | modest but significant increase | modest and transient increases in heart rate and decreases in supine blood pressure | no evidence of an increase | attenuated | abrogated
